The test addresses T1, human TREK-1 receptor (Homo sapiens, UniProt O95069).
T1 construct: expressed in transfected cells
T1 sequence (O95069 1-426): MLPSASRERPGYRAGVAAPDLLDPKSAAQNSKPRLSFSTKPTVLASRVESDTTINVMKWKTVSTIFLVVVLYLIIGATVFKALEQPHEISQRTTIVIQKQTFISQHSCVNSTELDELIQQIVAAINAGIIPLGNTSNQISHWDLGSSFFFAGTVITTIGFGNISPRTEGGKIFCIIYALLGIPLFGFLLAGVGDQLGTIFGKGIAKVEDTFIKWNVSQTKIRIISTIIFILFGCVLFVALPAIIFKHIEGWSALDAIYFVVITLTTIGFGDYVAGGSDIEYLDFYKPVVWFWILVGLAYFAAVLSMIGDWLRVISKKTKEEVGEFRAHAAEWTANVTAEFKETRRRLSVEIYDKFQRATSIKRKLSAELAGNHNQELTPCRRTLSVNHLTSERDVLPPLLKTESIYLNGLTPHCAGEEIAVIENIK
The experiment in a line: TREK receptor screening: TREK-1 mediated currents by manual patch clamp in transfected frog oocytes. Format: cell-based. The note with it: at 1 mMol; None = 1.000. The text has this: The human TREK-1 receptor is a temperature sensitive, mechano-gated potassium channels, present in human skin and neuronal cells. It is known to be involved in the signaling of temperature sensation. Here it cooperates with other ion channels in the relevant cell types.
To screen for TREK-1 receptor channel blockers, frog oocyte were transfected to transiently overexpress the human TREK-1 receptor. A substance database was screened on the cells. Read out was TREK-1medited currents, detected by manual patch clamp.
Background: The patch-clamp technique gives a direct electrical read-out from membranes.

We go through 5 compounds from patent publication US11123272B2, “Cosmetic blends” (Symrise AG, priority 2016, dated 2021).

As for `CCCCCCCCC(O)CO` (centres unmarked) [1,2-Decandiol], the “Blockade of TREK-1 receptor, F.I.” value was 0.773. For `CCCCCCCCCCC(O)CO` (centres unmarked) [1,2-Dodecandiol] the value was 0.733.

Regarding `CCCCC(O)CO` (centres unmarked) [1,2-Hexandiol], the “Blockade of TREK-1 receptor, F.I.” value worked out at 0.942. For `CCCCCCC(O)CO` (centres unmarked) [1,2-Octandiol] the value was 0.855.

For the compound `CNCCC(Oc1ccc(C(F)(F)F)cc1)c1ccccc1` (centres unmarked) [Fluoxetine, reference compound], the “Blockade of TREK-1 receptor, F.I.” value was 0.679.
